Consider four compounds from patent publication US7132279B2, “Epidermal melanocyte culture formulations” (New York Eye & Ear Infirmary, priority 2003, dated 2006).

The subject of assay [1] is epidermal melanocytes. Description: Cell growth of cultured epidermal melanocytes by cell counting (6 days). It counts as cell-based, human. Here is the method: (§1) Three deleted media were used for the study, (i) growth factor-deleted medium, (ii) cAMP-elevating agent deleted medium and (iii) serum-depleted medium. Various testing substances were added to the three deleted media above. These substances include bFGF, HGF, epinephrine and α-MSH. The deleted medium without the test substance was the negative control and the complete medium is the positive control.
Human skin specimens containing epidermis were obtained from a donor. The specimens were incubated in 0.25% trypsin solution (GIBCO, Carlsbad, Calif.) for 15 minutes at 37° C., followed by a 10 minute incubation with 0.2% EDTA (Sigma, St. Louis, Mo.) solution. The epidermal sheets were gently treated with forceps to dissociate the epidermal cells and to yield an epidermal cell suspension. The epidermal cells were centrifuged and seeded into a 25 cm^2 flask with the culture medium. The flask was incubated at 37° C. in an atmosphere of 95% humidified air and 5% CO2. Geneticin (Sigma, St. Louis, Mo.) was added (100 μg/ml) for three days to eliminate keratinocytes and fibroblasts. The medium was changed every three days. The melanocytes typically reached confluence in two weeks. After reaching confluence, the melanocytes were detached using trypsin-EDTA solution, centrifuged, diluted and seeded for subculture. At the time of transplantation, the melanocytes were detached using trypsin-EDTA solution, centrifuged and resuspended with F12 medium.
Cell counting was used to evaluate the effect of the test substance on growth of epidermal melanocytes. Epidermal melanocytes were plated in 6-well plates at a density of 1×10^5 cells per well with medium. After 24 hours, medium was replaced by the testing media. The media was changed every three days. After six days, the cells were detached with trypsin-EDTA solution and neutralized with culture medium with 10% serum. The cell suspension was centrifuged and the pellet was resuspended in 1 ml F12 medium, 20 μl of the cell suspension was collected into the tip of a Pasteur pipette and transferred to a hemocytometer. The hemocytometer was observed under an optical microscope. Cells falling in four […] areas bounded by three parallel lines were counted. The cell number was obtained using Formula I shown below (Freshney, 1987, Culture of Animal Cells. Wiley-Liss, Inc., New York, 2nd edition). The average of four counts was calculated. Triplicate samples were assayed in all experiments. c=n×10^4 FORMULA I • where c=concentration (cells/ml), n=number of cells counted.

The subject of assay [2] is epidermal melanocytes. As to the kind of experiment: Melanin production of cultured epidermal melanocytes (optical density at 475 nm). It counts as cell-based, human. Conditions: 6 days. As to the method: as §1
Melanocytes cultured as described above were detached by trypsin-EDTA solution and counted in a hemocytometer. The cell suspensions were centrifuged and the pellet was resuspended in 1N NaOH. Melanin concentration was determined by measurement of optical density at 475 nm by a spectrophotometer and compared with a standard curve obtained using synthetic melanin (Sigma, St. Louis, Mo.). Melanin content is expressed as μg/culture or ng/cell (Hu et al., 1995, Invest. Ophthalmol Vis Sci 36:931).

Assay [3] deals with epidermal melanocytes. Description: Migration of cultured epidermal melanocytes in Boyden chambers. It counts as cell-based, human. To be noted: for Migration of epidermal melanocytes: cAMP deleted medium. As to the method: Cell migration experiments were performed on early passages of cells in 48-well Boyden chambers (Neuroprobe, Bethesda, Md.). Cultured epidermal melanocytes were dissociated with 0.05% trypsin-EDTA (Sigma, St. Louis, Mo.) at 37° C. for 2–3 minutes, neutralized by culture medium with 10% FBS. The cells were centrifuged and resuspended in culture medium. The lower half of the Boyden chambers contained culture medium with or without tested substances. An 8 μm pore cellulose nitrate filter separated the upper and lower wells. Epidermal melanocytes (3×10^4) suspended in 50 μl culture medium (with or without tested substances) were added to the upper wells. The chamber was incubated at 37° C. in a humidified atmosphere at 95% air and 5% CO2. After 6 hours, the filter was removed from the chamber, fixed in 95% ethanol for 5 minutes, and stained with hematoxylin for 1 minute. The number of cells migrating through the filter and attached to the lower surface of the filter was counted (Doerr et al., 1996, J Biol Chem 271:2443; Verdoorn et al., 1986, Arch Ophtalmol 104:1216). Triplicate samples were assayed in all experiments.

Assay [4] deals with ocular melanocytes. Conditions: Hu, 2000; cited from earlier work.
The test system of assay [5] is epidermal melanocytes. Conditions: Halaban et al., 1988; cholera toxin in the media; cited from earlier work.
[6] abbreviates: growth factor-deleted medium, 1-1,000 ng/ml.
Setting [7] is: cAMP-elevating agents-deleted medium, epinephrine 1-3,000 ng/ml, α-MSH 1-1,000 ng/ml.

Where no end group is shown, it is not given here.

Take “bFGF: basic fibroblast growth factor (PeproTech)”: the “Cell growth (cell number) versus control” value in assay [1] (setting [6]) was “dose dependent stimulation of cell growth”. Further, the “Melanin content/well versus control” value in assay [2] (setting [6]) is listed as “did not show any significant influence on melanin content”.

Turning to “HGF: hepatocyte growth factor, pleiotrophic growth factor (PeproTech)”, in assay [1] (setting [6]), the “Cell growth (cell number) versus control” value is “dose dependent stimulation of cell growth”. Further, in assay [3] (1-1,000 ng/ml, 6 hours), the “Migration cell number versus control” value is recorded as “dose dependent stimulation of migration”. For the same compound, the “Growth of cultured ocular melanocytes” value in assay [4] is listed as “stimulates growth of cultured ocular melanocytes”. Besides, the “Melanin content/well versus control” value in assay [2] (setting [6]) is reported as “significantly greater than that of the controls”.

Turning to `CNC[C@H](O)c1ccc(O)c(O)c1` [epinephrine, (L)-Epinephrine bitartrate], in assay [1] (setting [7]), the “Cell growth (cell number) versus control” value is recorded as “dose dependent stimulation of cell growth”. In assay [3], the “Migration of epidermal melanocytes” value is “stimulated the growth, melanogenesis and migration”. Also, the “Melanin content/well versus control” value in assay [2] (setting [7]) is listed as “significantly greater than that of the controls”.

With “α-MSH: tridecapeptide with a sequence identical to the first 13 amino acids of adrenocorticotropin (ACTH) (SYSMEHFRWGKPV; ends and bridges not checked; UniProt P01189 138-150, looked up)”, the “Cell growth (cell number) versus control” value in assay [1] (setting [7]) is given as “dose dependent stimulation of cell growth”. Further, the “Migration of epidermal melanocytes” value in assay [3] is “stimulated the growth, melanogenesis and migration”. For the same compound, the “Growth of cultured epidermal melanocytes” value in assay [5] was “failed to stimulate growth”. For the same compound, the “Melanin content/well versus control” value in assay [2] (setting [7]) is given as “significantly greater than that of the controls”.
